Reference: US6815425B1 (The United States of America as represented by the …, priority 1999, dated 2004)
Entries after “also recorded” stand apart in the source; their conditions may differ.

Tests used:
[1] = test system: focal ischemia; details: rat; also when given 3 hours or 5 hours after start of recirculation (temporary model); cited from earlier work
[2] = test system: volume of necrosis; details: administered 15 min prior or 30 min post TBI; preliminary studies; cited from earlier work
[3] = animal studies / rodents; cited from earlier work
[4] = test system: striatal lesions; details: striatal injections; cited from earlier work
[5] = cited from earlier work
[6] = cited from earlier work; for plasma levels of thyroid hormone: in vivo
[7] = test system: serum enzyme thyroliberinase; details: cited from earlier work
[8] = test system: forebrain neurons; test: Glutamate-induced neurotoxicity, colorimetric MTT assay, cultured forebrain neurons; format: cell-based, rat
Description: (§1) Primary cultures of neurons derived from the forebrains and spinal cords of E15 fetuses were prepared and maintained in culture for eight days. […] Extending these observations, we compared the neuroprotective efficacy of EEP and TRH.

[9] = test system: glutamate-stimulated Ca2+ dynamics; test: Glutamate-stimulated Ca2+ dynamics after pre-incubation; format: cell-based
[10] = cited from earlier work; remark: listed apart in the source
[11] = test system: locomotor activity; details: administered to rats; cited from earlier work
[12] = target: T1, TRH receptor (Homo sapiens, UniProt P34981); details: reported; cited from earlier work
T1 sequence (P34981 1-398): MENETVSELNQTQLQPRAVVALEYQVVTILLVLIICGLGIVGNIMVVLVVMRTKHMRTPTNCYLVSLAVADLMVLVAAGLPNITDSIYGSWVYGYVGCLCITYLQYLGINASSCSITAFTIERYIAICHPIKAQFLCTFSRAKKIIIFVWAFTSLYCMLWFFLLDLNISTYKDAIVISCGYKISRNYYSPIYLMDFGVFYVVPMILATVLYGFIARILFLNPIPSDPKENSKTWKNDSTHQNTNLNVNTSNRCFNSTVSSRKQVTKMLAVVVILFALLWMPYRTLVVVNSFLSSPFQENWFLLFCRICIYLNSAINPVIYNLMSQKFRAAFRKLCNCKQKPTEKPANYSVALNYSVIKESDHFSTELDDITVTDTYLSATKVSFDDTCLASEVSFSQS

[13] = test system: immobility in the Porsolt swim test; details: administered to rats; cited from earlier work
[14] = compared with TRH; cited from earlier work
[15] = test system: spinal cord neurons; test: Glutamate-induced neurotoxicity, colorimetric MTT assay, cultured spinal cord neurons; format: cell-based, rat; details: 100 μM glutamate 30 min
Description: as §1

[16] = test system: cultured forebrain neurons; test: Neuroprotection by EEP with or without SPBN in cultured forebrain neurons exposed to Glu, MTT assay; format: cell-based, rat; details: SPBN 10 mM where present, Glu 100 μM, 1 h
Description: Neuroprotection evident at higher concentrations of the tripeptide is further enhanced by the addition of the nitrone. Percent neuroprotection=100×((viabilitytest−vibilitymean Glu))/(viabilitymean control−viabilitymean Glu)). Neuroprotection was then assessed by conducting the colorimetric MTT assay.

[17] = rats, intraperitoneal 1.0 mg/kg; cited from earlier work

Q: For CC(C)(C)[N+]([O-])=Cc1ccc(S(=O)(=O)[O-])cc1S(=O)(=O)[O-].[Na+].[Na+] [NXY-059], which “efficacy in temporary and permanent focal ischemia” value [1] is on record?
A: Its value is “effective”.

Q: What about the volume of necrosis [2] of the same compound?
A: Its volume of necrosis is “effective in decreasing volume of necrosis”.

Q: Which toxicity [3] does the source give for CC(C)(C)[N+]([O-])=Cc1ccccc1 [PBN, α-Phenyl-N-tert-butylnitrone] here?
A: Its toxicity is “significant toxicity at high doses; also recorded: toxic in rodents at high doses”.

Q: Which toxicity [3] does the source give for CC(C)(C)[N+]([O-])=Cc1ccccc1S(=O)(=O)O [SPBN, N-tert-Butyl-α-(2-sulfophenyl)nitrone] here?
A: Its toxicity is “without significant toxicity; also recorded: Toxicity has not been a problem”.

Q: What about the “volume of lesions induced by NMDA, kainic acid, AMPA, MPP+, 3-acetyl pyridine and malonate” value [4] of the same compound?
A: Its value is “decreasing the volume of the lesions”.

Q: And the “solubility in aqueous solutions” value [5]?
A: Its value is “soluble”.

Q: With NC(=O)[C@@H]1CCCN1C(=O)[C@H](Cc1cnc[nH]1)NC(=O)[C@@H]1CCC(=O)N1 [TRH, pyroglutamate-histidine-proline-amide, reference compound] as the compound, how does the “plasma levels of thyroid hormone” value [6] read?
A: Its value is “elevates”.

Q: And the “hydrolysis by serum enzyme thyroliberinase” value [7]?
A: Its value is “hydrolyzed”.

Q: What about the “effect on glutamate-mediated neurotoxicity” value [8] of the same compound?
A: Its value is “relatively little effect”.

Q: What about the “effect on glutamate-stimulated Ca2+ dynamics” value [9] of the same compound?
A: Its value is “clearly does”.

Q: And the “hydrolysis by pyroglutamylpeptidase II found in blood” value ([10]; injected, blood)?
A: The value was “rapidly hydrolyzed”.

Q: What does the source list for pGLU-GLU-PRO-NH2 [EEP]?
A: locomotor activity [11]: increases; affinity for the TRH receptor [12]: low affinity; efficacy as a releaser of thyroid stimulating hormone or triiodothyronine ([6]; compared to thyrotropin releasing hormone): minimal efficacy; plasma levels of thyroid hormone [6]: does not elivate; immobility in the Porsolt swim test [13]: decreases; hydrolysis by serum enzyme thyroliberinase [7]: not hydrolyzed; reduction of Glu-induced toxicity ([8]; 500 μM EEP, 100 μM glutamate 30 min, n=7): 29.8±5.6%; neuroprotection (reduction of Glu-induced toxicity) ([8]; 1 mM EEP, 100 μM glutamate 30 min, n=7): 54.1±5.3%; neuroprotective efficacy / potency relative to TRH ([8]; EEP compared with TRH, neuron type not stated): over three times as effective as TRH; also recorded: three times the neuroprotective potency of TRH; stability in follicular fluid [14]: more stable than TRH; reduction of Glu-induced toxicity ([15]; 500 μM EEP, n=7): 20±2.0%; neuroprotection (reduction of Glu-induced toxicity) ([15]; 1 mM EEP, n=8): 38.9±4.9%; effect on glutamate-stimulated Ca2+ dynamics [9]: does not affect; Percent Neuroprotection ([16]; EEP 300 μM): 13.321 ± 7.319%; Percent Neuroprotection ([16]; EEP 1000 μM): 35.784 ± 15.431%; degradation in human serum ([10]; human serum): not degraded at all; increase of EEP level in amygdala [17]: 7 fold; increase of EEP level in cortex [17]: 14 fold; increase of EEP level in the eye [17]: Over one hundred; increase of EEP level in the hypothalamus [17]: 2 fold; increase of EEP level in the medulla [17]: 4 fold; increase of EEP level in the pituitary [17]: 11 fold
